According to US5670520A, “Method for inhibiting virus replication in mammalian cells using carbostyil derivatives” (Otsuka Pharmaceutical Co., Ltd., priority 1996, dated 1997):
≈ marks a conversion by molar mass, not a printed value.

Experiments:
human T cells = assay: 30 min [3H]thymidine, [3H]uridine and [3H]amino acid incorporation; type: cell-based; details: 30 min label, 250 μM vesnarinone
Method: Next, the PHA-stimulated T cells were labelled for 30 min with 5.0 μCi/ml of an [^3 H]amino acid mixture (1.0 mCi/ml, Amersham, Arlington Heights, Ill.), washed twice with ice-cold PBS, and then lysed in PBS containing 1.0% (w/v) SDS, followed by addition of a mixture of 7.0% (w/v) trichloroacetic acid and 1.0% (w/v) pyrophosphate. The precipitates were loaded on GF/A filters, and washed extensively with a mixture of 7.0% (w/v) trichloroacetic acid and 1.0% (w/v) pyrophosphate. Radioactivity was measured by scintillation counting.

ZEBRA = assay: Flow cytometric detection of ZEBRA in Akata cells; type: cell-based, Epstein-Barr virus; details: 3 hrs after anti-IgG; vesnarinone 0-100 μg/ml
Method: (§1) The human Burkitt's lymphoma cell line, Akata, provided by Dr. Kenzo Takada (Takada, Int. J. Cancer, 33:27-32 (1984); and Takada et al, Virus Genes, 5:147-156 (1991)), was cultured at 37° C. in RPMI 1640 medium supplemented with 15% (v/v) heat-inactivated FCS, and 20 μg/ml gentamicin.
(§2) The cell progression of Akata cells was arrested by culturing of the cells for 96 hrs in the presence of 1.5% (y/v) DMSO (Sigma, St. Louis, Mo.) (Sawai et al, Exp. Cell Res., 187:4-10 (1990); and Takase et al, Cell Growth Differ., 3:515-521 (1992)).
1 hr after transfer (release from DMSO), a goat F(ab')2 fragment of anti-human IgG antibody (Organon Teknika, Durham, N.C.) was added at a concentration of 50 μg/ml to induce productive EBV replication (Takagi et al, Virology, 185:309-315 (1991)). […]
For flow cytometric detection of ZEBRA, after a 60 min fixation with 70% (v/v) ethanol at 4° C., 10^6 cells were centrifuged, and washed with PBS. […] The cells were washed with PBS again, and analyzed by flow cytometry (Epics Profile, Coulter), monitoring fluorescence (520-540 nm) in a logarithmic scale with 488 nm excitation. The positivity for ZEBRA was calculated by a non-linear least squares method (Takase et al, J. Immunol. Methods, 118:129-138 (1989)).

CHO cells [1] = assay: Rescue of CHO cells from cytostatic effects of 5-FUd; type: cell-based, Chinese hamster; details: 50 nM 5-FUd, 120 hrs; 0-250 μM vesnarinone or 1.0-10 μM dipyridamole
From the text: Nucleoside transport inhibitors, such as dipyridamole or NBMPR, are known to rescue cell proliferation from the cytotoxic effects of 5-fluorouridine(5-FUd) or high dose thymidine, by inhibiting transport of this cytotoxic nucleoside analog or thymidine (Aronow et al, Mol. Cell Biol., 6:2957-2962 (1986)).

U937 cells = assay: Intracellular phosphorylated AZT in U937 cells (DEAE filter); details: 0-250 μM vesnarinone or 0-100 nM dipyridamole; 2 hr
EBV = assay: In situ hybridization of EBV DNA in anti-IgG stimulated DMSO-released Akata cells; type: cell-based, Epstein-Barr virus; details: 20 hrs after 50 μg/ml anti-IgG; vesnarinone 0-100 μg/ml; acyclovir pretreatment
Method: as §1, §2
1 hr after transfer (release from DMSO), a goat F(ab')2 fragment of anti-human IgG antibody (Organon Teknika, Durham, N.C.) was added at a concentration of 50 μg/ml to induce productive EBV replication (Takagi et al, Virology, 185:309-315 (1991)).
3 hrs and 20 hrs after treatment with the anti-IgG, the cells were harvested for flow cytometric detection of the BamHI Z replication activator (ZEBRA), and for in situ detection of EBV DNA, respectively. […]
More specifically, cells coated on a glass slide were fixed in acetone at room temperature for 10 min. […] Positivity for EBV DNA was determined by the presence of red-colored grains and at least 1000 cells were examined under light microscopy. […]

CMV strain AD169 = assay: CMV plaque reduction assay in MRC5 cells; type: cell-based; details: Human betaherpesvirus 5, AD169, MRC5, 168 h
Method: More specifically, subconfluent monolayers of MRC5 cells (Biowhittaker, Walkersville, Md.) in 12-well tissue culture plates were exposed to a suspension of a 1:500 dilution of stock virus (CMV strain AD169; ATCC No. VR-538) in Eagles Minimal Essential Medium (MEM) supplemented with 2.0% (v/v) fetal bovine serum, for 2 hr at 37° C. to allow for virus absorption. The fluid containing unabsorbed virus was then removed, and the cell layer rinsed with Eagles MEM without serum.
The minimum compound concentration that reduces plaque production by 50% (MIC50) was calculated from single compound assays by using a regression analysis program for semilog curve fitting.
The following formula of additivity, which is appropriate for inhibitors affecting different sites, was used.

CHO cells [2] = assay: [3H]adenosine / [3H]adenine transport in CHO cells; details: 0-750 μM vesnarinone or 0-100 μM dipyridamole, 1 min pulse

For `COc1ccc(C(=O)N2CCN(c3ccc4c(c3)CCC(=O)N4)CC2)cc1OC` [vesnarinone, 3,4-dihydro-6-[4-(3,4-dimethoxybenzoyl)-1-piperazinyl]-2(1H)-quinoline], the “[3H]amino acid incorporation” value (human T cells) was “did not inhibit [^3 H]amino acid incorporation”, the “[3H]uridine incorporation, brief exposure” value (human T cells; 15 nM aphidicolin or 100 μM deferoxamine) was “rapidly inhibited [^3 H]uridine incorporation” and the “degree of positivity for ZEBRA” value (ZEBRA) was “not decreased by vesnarinone at concentrations less than or equal to 10 μg/ml”. For the same molecule, the “reversal of cytostatic effects of 5-FUd (cell number)” value (CHO cells [1]) was “demonstrated a similar ability to rescue the cells in a dose-dependent manner”, the “intracellular concentration of phosphorylated AZT” value (U937 cells) was “increased the concentration of phosphorylated AZT in U937 cells in a dose-dependent manner” and the “population of EBV producing cells (positivity for EBV DNA)” value (EBV) was “gradually decreased in the presence of vesnarinone in a dose-dependent manner”. The inhibition at 30 µg/mL (CMV strain AD169; read-out: efficacy against CMV plaque formation) was 91.5%, the EC50 (CMV strain AD169; single compound assay, regression analysis, read-out: MIC50 (minimum concentration that reduces plaque production by 50%)) was 24 µg/mL (≈ 60.7 µM) and the “[3H]adenosine and [3H]adenine transport” value (CHO cells [2]) was “inhibitory effects on nucleoside and nucleobase transport in vitro were observed within the therapeutic range”.
